Data set [1] in a line: Solubility in water, 1st fluid and 2nd fluid of the Japanese pharmacopeia disintegration test (shaking, filtration, HPLC). Format: physicochemical. To be noted: thermodynamic from solid. The procedure:
That is, the solutions used were the water specified in the disintegration test method of the 13th edition of the Japanese pharmacopeia, the 1st fluid (a model of human gastric juice) and the 2nd fluid(a model of human intestinal juice). The processes for preparing them are as follows:
The 1st fluid (a model of human gastric juice) was an aqueous solution (pH about 1.2) prepared by dissolving sodium chloride (2.0 g) and hydrochloric acid (7.0 mL) in an amount of water such that the total volume is 1,000 mL.
The 2nd fluid (a model of human intestinal juice) was an aqueous solution (pH about 6.8) prepared by mixing a 0.2 M potassium dihydrogen phosphate aqueous solution (250 mL) with a 0.2 N sodium hydroxide aqueous solution (118 mL) and an amount of water such that the total volume is 1,000 mL.
The present compound (Compound A, B, C or D) in the amount of 20 mg was added to each solution (40 mL) set forth above, which was then shaken with a recipro-shaker (170 rpm) for 2 hours. Each sample (4 mL) obtained at 15, 30, 45, 60 and 120 minutes was filtered through a filter having a pore diameter of 0.45 µm to give a sample solution. The concentration of the said compound in the sample solution was determined by high performance liquid chromatography and the solubility was calculated. The high performance liquid chromatographic measurement was performed with HITACHI D-7000 (wave length: 254 nm; column: YMC-PACK C18; column temperature: 40°C; injection volume: 10 µL; flow rate: 1 mL/min; mobile phase: a solution obtained by dissolving sodium 1-octanesufonate (4.3 g) in a solution of phosphoric acid (1 mL) in water (1000 mL), and adding acetonitrile (400 mL) to 600 mL of the thus obtained solution . The retention time of each of Compounds A, B, C and D was about 20 minutes, about 14 minuets, about 25 minutes and about 27 minutes, respectively. […]
In this connection, the measurement was carried out according to the procedure of Reference Example 1.

Data set [2] is described as follows: Crystallinity by powder X-ray diffractometry. The format is physicochemical. The settings on record: for crystallinity: equation of crystallinity. From the text:
Whether a compound of the general formula (1) is amorphous or not, or the degree of amorphous status thereof can be determined based on its crystallinity, for example, measured by powder X-ray diffractometry. Generally, the degree of amorphous status can be indicated with the following equation. Degree of Amorphous status = 100 - Crystallinity [formula]
Powder X-ray diffractometry is a method comprising irradiating a powder sample with X-ray to compulsively oscillate electrons contained in the sample material, and measuring at each angle of diffraction the diffraction intensity of the coherent scattering X-ray caused by the compulsively oscillated electrons. The measurement data is indicated with the X-ray diffraction pattern as a diffraction intensity with respect to each angle of diffraction. […] Therefore, an amorphous substance can be distinguished from a crystalline substance based on their X-ray diffraction patterns and/or crystallinities. The measurement by powdery X-ray diffractometry in accordance with the present invention can be carried out with Shimadzu Powder X-ray Diffractometer (XRD-6000) under the following measurement conditions.
• Anticathode: Cu • X-ray tube voltage: 40 kV • X-ray tube current: 30 mA • Goniometer • Driving axle: θ-2θ • Scanning range: 3-49.98° • Scanning rate: 2°/min
The crystallinity was obtained with the soft of Shimazu Powder X-ray Diffractometer by carrying out the corrected calculation treatment of the Lorentz polarization factor of the measured data, calculating the integrated intensity of the peak derived from crystalline substance (Icr) and the integrated intensity of the peak derived from amorphous substance (Ia),respectively and calculating the concentration of crystalline moiety in the test sample, that is the crystallinity based on the ratio thereof by the following equation: x =(1)/(1 + K ×(I a)/(I cr))× 100 [formula] wherein X is a crystallinity; Icr is an integrated intensity of crystalline moiety; Ia is an integrated intensity of amorphous moiety; K is a ratio of the crystalline moiety of X ray intensity scattered from a certain amount of a material to the amorphous moiety thereof (the calculation is usually done under K=1).
Each standard sample was subjected to a powder X-ray diffraction measurement to determine the peak height and crystallinity of each standard sample (the powder X-ray diffraction pattern of the standard samples 1, 2, 3 and 4 being shown in Figures 1, 8, 9 and 10, respectively). A measurement by powdery X-ray diffractometry was carried out with Shimadzu Powder X-ray Diffractometer (XRD-6000) under the following measurement conditions.
Measurement condition: • Anticathode: Cu • X-ray tube voltage: 40 kV • X-ray tube current: 30 mA • Goniometer • Driving axle: θ-2θ • Scanning range: 3-50° • Scanning rate: 2°/min
The crystallinity was calculated with the soft of Shimadzu Powder X-ray Diffractometer. The thus obtained crystallinity of each standard sample was as follows:
These measurements were carried out based on the height of a diffraction peak as an indication, wherein the diffraction peak is characteristic of Compound A. The characteristic diffraction peak is a diffraction peak which can be distinguished from the diffraction peak derived from a pharmaceutically acceptable carrier and can characterize Compound A. Representative examples of the diffraction peak characteristic of Compound A include peaks at θ-2θ of about 8.5°, about 12.8°, about 16.2°, about 20.4°, about 21.4°, about 25.2° and about 26.9°. It is preferred to select a diffraction peak in which the relation between the height of diffraction peak and the crystallinity has a clear linearity.
With respect to each diffraction peak, a graph showing the correlation between the peak height and the crystallinity was made in which the peak height of each standard sample (vertical axis) is potted against the crystallinity (horizontal axis). […]

[3] abbreviates: pH 1.2, simulated gastric fluid.
The mark [4] stands for this setting: pH 6.8, fassgf or other biorelevant.
Setting [5] is: pH 1.2, simulated gastric fluid, 1st fluid (model of human gastric juice, pH about 1.2), after 2 hours, crystal form, read-out: Solubility (mg/mL) 1st fluid.
[6] abbreviates: pH 6.8, fassgf or other biorelevant, 2nd fluid (model of human intestinal juice, pH about 6.8), after 2 hours, crystal form, read-out: Solubility (mg/mL) 2nd fluid.
[7] abbreviates: water, solubility after 2 hours, compound in crystal form, 20 mg in 40 mL, read-out: Solubility (mg/mL) Water.

Like-named read-outs stand apart in the source and are kept apart here.

On to `CS(=O)(=O)Nc1cc([C@@H](O)CNCCOc2ccc3c(c2)[nH]c2ccccc23)ccc1Cl.Cl` [Compound C, (R)-N-[5-[2-[2-(9H-carbazol-2-yloxy)ethylamino]-1-hydroxyethyl]-2-chlorophenyl]methanesulfonamide hydrochloride], for which the solubility at 2 h in data set [1] (setting [3]) is 0.008 mg/mL; in data set [1] (setting [4]), 0.014 mg/mL; in data set [1] (water), 0.471 mg/mL. In addition, in data set [2], the “crystallinity, another lot separately prepared” value turned out to be 72.0%. The compound further yielded a crystallinity in data set [2] of 70.3%.
As for `CS(=O)(=O)Nc1cccc([C@@H](O)CNCCOc2ccc3c(c2)[nH]c2ccccc23)c1.Cl` [Compound A, (R)-N-[3-[2-[2-(9H-carbazol-2-yloxy)ethylamino]-1-hydroxyethyl]phenyl]methanesulfonamide hydrochloride], the solubility at 2 h was 0.002 mg/mL in data set [1] (setting [5]), 0.005 mg/mL in data set [1] (setting [6]) and 0.123 mg/mL in data set [1] (setting [7]). Further, the “crystallinity, another lot separately prepared” value in data set [2] turned out to be 88.8%. This compound also had a crystallinity in data set [2] of 83.5%.
The corresponding values for `CS(=O)(=O)Nc1cc([C@@H](O)CNCCOc2ccc3c(c2)[nH]c2ccccc23)ccc1O.O=C(O)C(O)C(O)C(=O)O` [Compound B, (R)-N-[5-[2-[2-(9H-carbazol-2-yloxy)ethylamino]-1-hydroxyethyl]-2-hydroxyphenyl]methanesulfonamide D-tartrate] are 0.003 mg/mL, 0.003 mg/mL, 1.34 mg/mL, 70.5% and 61.1%.
In the case of `CS(=O)(=O)Nc1cc([C@@H](O)CNCCOc2ccc3c(c2)[nH]c2ccccc23)ccc1Br.Cl` [Compound D, (R)-N-[5-[2-[2-(9H-carbazol-2-yloxy)ethylamino]-1-hydroxyethyl]-2-bromophenyl]methanesulfonamide hydrochloride], the solubility at 2 h was 0.035 mg/mL in data set [1] (setting [3]), 0.012 mg/mL in data set [1] (setting [4]) and 0.701 mg/mL in data set [1] (water).

Source of the values: patent publication EP1219604A1, “METHOD FOR IMPROVING THE SOLUBILITY OF TRICYCLIC AMINO ALCOHOL DERIVATIVES” (Asahi Kasei Kabushiki Kaisha, priority 1999, dated 2001).
